Values joined by “and” are separate entries in the source; they are usually repeats but may differ in a detail not shown here. Identical values can stand only once.
Conditions: Liquid, Closed cell (Static) method

COC [dimethyl ether]
Conditions	vapor or sublimation pressure
233.13 K	54.61 kPa
238.13 K	68.49 kPa
243.16 K	85.57 kPa
248.15 K	105.59 kPa
253.15 K	129.42 kPa
258.16 K	157.53 kPa
263.16 K	190.44 kPa
268.16 K	228.48 kPa
273.15 K	272.17 kPa
278.14 K	321.87 kPa
283.16 K	378.66 kPa
288.17 K	443.57 kPa
293.16 K	515.53 kPa
298.17 K	596.21 kPa
303.16 K	687.37 kPa
305.16 K	726.26 kPa
308.16 K	787.07 kPa
313.16 K	897.59 kPa
316.15 K	968.55 kPa
318.16 K	1018.9 kPa
323.15 K	1152.3 kPa
328.15 K	1298.2 kPa
333.16 K	1457.5 kPa and 1457.8 kPa
338.15 K	1631 kPa
343.15 K	1818.8 kPa
348.15 K	2022.5 kPa
353.15 K	2242.7 kPa
353.16 K	2243.1 kPa
358.14 K	2479.9 kPa
363.15 K	2735.7 kPa
368.16 K	3010.8 kPa
373.15 K	3305.7 kPa
378.15 K	3622.6 kPa
383.14 K	3962.2 kPa
388.15 K	4331.5 kPa
393.16 K	4725 kPa
398.16 K	5146.8 kPa
400.38 K	5355.8 kPa
